Results from patent publication US4591586A, “6-fluoro-3-[3-(1-heterocyclo)propyl]-1,2-benzisoxazoles for treatment of pain, hypertension and psychoses” (Hoechst-Roussel Pharmaceuticals, priority 1984, dated 1986).
Counter-ions that a name gives are not always drawn. Like-named read-outs stand apart in the source and are kept apart here.

Key:
[1] = tested on: phenyl-para-quinone induced writhing; assay: phenyl-para-quinone writhing assay in mice (analgesia); type: in vivo; conditions: for ED50: Mus musculus, read-out: Analgesic Activity ED50 (dose at which 50% of the phenyl-para-quinone induced writhing is inhibited)
[2] = tested on: apomorphine-induced climbing; assay: climbing mice assay (block of apomorphine-induced climbing), antipsychotic activity; type: in vivo, mice (CK-1 male); conditions: Mus musculus, ip; for ED50: read-out: Antipsychotic Activity ED50 value (estimated dose for 50% decrease in climbing scores)
[3] = tested on: spontaneous hypertensive rat; assay: antihypertensive activity in the spontaneous hypertensive rat, indirect tail cuff method; type: in vivo; conditions: 50 mg/kg of body wt, oral, 3 days, measured on third day
Procedure: According to this procedure, the test compound is administered orally to a group of 5 rats for 3 days in relation to a control group of the same number. The decrease in blood pressure is measured on the third day of administration.

[4] = mice, 10 mg/kg of body wt, intraperitoneal, 30 minutes prior to apomorphine 1.5 mg/kg s.c., read-out: Antipsychotic Activity (% decrease in climbing score)
[5] = mice, at 20 mg/kg, subcutaneous
[6] = mice, intraperitoneal, 30 minutes prior to apomorphine 1.5 mg/kg s.c., linear regression

`Fc1ccc2c(CCCN3CCCCCC3)noc2c1.O=C(O)C(=O)O` [1-[3-(6-Fluoro-1,2-benzisoxazol-3-yl)propyl]-2,3,4,5,6,7-hexahydroazepine oxalate] showed an ED50 ([1]; sc, mice, subcutaneous) of 1.3 mg/kg and an inhibition in vivo at 10 mg/kg [2, 4] of 27%.

`CC(O)C1(c2ccccc2)CCN(CCCc2noc3cc(F)ccc23)CC1` (centres unmarked) [1-[3-(6-Fluoro-1,2-benzisoxazol-3-yl)propyl]-4-(1-hydroxyethyl)-4-phenylpiperidine hydrochloride] showed an inhibition in vivo at 10 mg/kg ([2]; read-out: Antipsychotic Activity (% decrease in climbing score)) of 41%.

For `Cl.Fc1ccc2c(CCCN3CCC(Oc4ccc(Cl)c(Cl)c4)CC3)noc2c1` [1-[3-(6-Fluoro-1,2-benzisoxazol-3-yl)propyl]-4-(3,4-dichlorophenoxy)piperidine hydrochloride], the “percent decrease in writhing at a given dose” value (“percent decrease in writhing” for short) [1, 5] was 49%.

With `Cl.Fc1ccc2c(CCCN3CCC(CCCc4ccccc4)CC3)noc2c1` [1-[3-(6-Fluoro-1,2-benzisoxazol-3-yl)propyl]-4-(3-phenylpropyl)piperidine hydrochloride] the “Blood Pressure Decrease (decrease in mean arterial blood pressure)” value (“Blood Pressure Decrease” below) [3] was 40 mm/mercury and the inhibition in vivo at 10 mg/kg [2, 4] was 25%.

Work on `Cl.O=C(c1ccc(F)cc1)C1CCN(CCCc2noc3cc(F)ccc23)CC1` [1-[3-(6-Fluoro-1,2-benzisoxazol-3-yl)propyl]-4-(4-fluorobenzoyl)piperidine hydrochloride] yielded an ED50 ([1]; sc, mice, subcutaneous) of 0.8 mg/kg and an inhibition in vivo at 3 mg/kg ([2]; mice, 3 mg/kg of body wt, intraperitoneal, 30 minutes prior to apomorphine 1.5 mg/kg s.c., read-out: Antipsychotic Activity (% decrease in climbing score)) of 91%.

For `Cl.Fc1ccc2c(CCCN3CCC(Oc4ccc(C(F)(F)F)cc4)CC3)noc2c1` [1-[3-(6-Fluoro-1,2-benzisoxazol-3-yl)propyl]-4-(4-trifluoromethylphenoxy)piperidine hydrochloride], the “Blood Pressure Decrease” value [3] was 35 mm/mercury.

In the case of `OC1CCN(CCCc2noc3cc(F)ccc23)CC1` [1-[3-(6-Fluoro-1,2-benzisoxazol-3-yl)propyl]-4-hydroxypiperidine], the “percent decrease in writhing” value [1, 5] is reported as 43% and the ED50 [2, 6] is reported as 10.4 mg/kg.

Work on `Cl.Fc1ccc2c(CCCN3CCC(c4ccccc4)CC3)noc2c1` [1-[3-(6-Fluoro-1,2-benzisoxazol-3-yl)propyl]-4-phenylpiperidine hydrochloride] yielded an ED50 ([1]; sc, mice, subcutaneous) of 1 mg/kg and an inhibition in vivo at 10 mg/kg [2, 4] of 35%.

For `Cl.Fc1ccc2c(CCCN3CCC(Sc4ccccc4)CC3)noc2c1` [1-[3-(6-Fluoro-1,2-benzisoxazol-3-yl)propyl]-4-phenylthiopiperidine hydrochloride], the ED50 ([1]; sc, mice, subcutaneous) was 4.4 mg/kg and the inhibition in vivo at 10 mg/kg [2, 4] was 27%.

For `Fc1ccc2c(CCCN3CCOCC3)noc2c1` [1-[3-(6-Fluoro-1,2-benzisoxazol-3-yl)propyl]morpholine oxalate], the ED50 ([1]; sc, mice, subcutaneous) was 2.2 mg/kg.

`Cl.Fc1ccc2c(CCCN3CCCCC3)noc2c1` [1-[3-(6-Fluoro-1,2-benzisoxazol-3-yl)propyl]piperidine hydrochloride] was tested, and the ED50 ([1]; sc, mice, subcutaneous) was 0.6 mg/kg and the “Blood Pressure Decrease” value [3] was 30 mm/mercury.

In the case of `Fc1ccc2c(CCCN3CCCC3)noc2c1.O=C(O)C(=O)O` [1-[3-(6-Fluoro-1,2-benzisoxazol-3-yl)propyl]pyrrolidine oxalate], the ED50 ([1]; sc, mice, subcutaneous) is reported as 1.2 mg/kg.

`Fc1ccc2c(CCCN3CCc4ccccc4C3)noc2c1` [2-[3-(6-Fluoro-1,2-benzisoxazol-3-yl)propyl]-1,2,3,4-tetrahydroisoquinolinehydrochloride] was tested, and the “percent decrease in writhing” value [1, 5] was 69%.

For `Fc1ccc2c(CCCN3CCC(Oc4ccc(Cl)cc4)CC3)noc2c1` [4-(4-Chlorophenoxy)-1-[3-(6-fluoro-1,2-benzisoxazol-3-yl)propyl]-piperidinehydrochloride], the “Blood Pressure Decrease” value [3] was 39 mm/mercury.

`CC(=O)C1(c2ccccc2)CCN(CCCc2noc3cc(F)ccc23)CC1.Cl` [4-Acetyl-1-[3-(6-fluoro-1,2-benzisoxazol-3-yl)propyl]-4-phenylpiperidine hydrochloride] was tested, and the “percent decrease in writhing” value ([1]; mouse, in vivo, sc, 20 mg/kg) was 46%.

`O=C(NC1CCN(CCCc2noc3cc(F)ccc23)CC1)c1ccccc1` [4-Benzamido-1-[3-(6-fluoro-1,2-benzisoxazol-3-yl)propyl]-piperidine] was tested, and the ED50 ([1]; sc, mice, subcutaneous) was 0.6 mg/kg, the “Blood Pressure Decrease” value [3] was 44 mm/mercury and the inhibition in vivo at 10 mg/kg [2, 4] was 49%.

For `Cl.Fc1ccc2c(CCCN3CCC(Cc4ccccc4)CC3)noc2c1` [4-Benzyl-1-[3-(6-fluoro-1,2-benzisoxazol-3-yl)propyl]piperidine hydrochloride], the “Blood Pressure Decrease” value [3] was 71 mm/mercury and the inhibition in vivo at 10 mg/kg [2, 4] was 29%.

In the case of `CC1CCN(CCCc2noc3cc(F)ccc23)CC1.Cl` [4-Methyl-1-[3-(6-fluoro-1,2-benzisoxazol-3-yl)propyl]piperidine hydrochloride], the “Blood Pressure Decrease” value [3] is reported as 59 mm/mercury and the ED50 [2, 6] is reported as 7.6 mg/kg.

In the case of `Fc1ccc2c(CCCNN3CCCCC3)noc2c1` [6-Fluoro-3-{3-[N-(1-piperidino)aminopropyl}-1,2-benzisoxazole oxalate], the ED50 ([1]; sc, mice, subcutaneous) is reported as 5 mg/kg and the inhibition in vivo at 10 mg/kg [2, 4] is reported as 36%.

Work on `Cl.Fc1ccc2c(CCCN3CCC4(CC3)OCCO4)noc2c1` [8-[3-(6-Fluoro-1,2-benzisoxazol-3-yl)propyl]-1,4-dioxa-8-azaspiro[4,5]decane hydrochloride] yielded an ED50 ([1]; sc, mice, subcutaneous) of 1.4 mg/kg and an ED50 [2, 6] of 6.4 mg/kg.

In the case of `N=C(N)NCCN1CCCCCCC1` [guanethidine, reference compound], the “Blood Pressure Decrease” value [3] is reported as 20 mm/mercury.

In the case of `O=C(CCCN1CCC(O)(c2ccc(Cl)cc2)CC1)c1ccc(F)cc1` [haloperidol, reference compound], the ED50 [2] is reported as 0.11 mg/kg.

With `CC(C)=CCN1CCC2(C)c3cc(O)ccc3CC1C2C` (centres unmarked) [pentazocine, reference compound] the ED50 ([1]; sc) was 1.3 mg/kg.

In the case of `CCC(=O)O[C@](Cc1ccccc1)(c1ccccc1)[C@H](C)CN(C)C` [propoxyphene, reference compound], the ED50 ([1]; sc) is reported as 3.9 mg/kg.

In the case of `CSc1ccc2c(c1)N(CCC1CCCCN1C)c1ccccc1S2` (centres unmarked) [thioridazine, reference compound], the ED50 [2, 6] is reported as 3.5 mg/kg.
